Laboratory results published in ChEMBL document CHEMBL3885881, “DrugMatrix”.

Species: Rattus norvegicus
Assay: DrugMatrix - Regimen: Daily Repeat
Format: toxicity, organism-based, Sprague-Dawley
Set-up: regimen Daily Repeat, gender Male, age 6-8 weeks
Conditions: in vivo, iv, vehicle 100 % SALINE; for ABSOLUTE BASOPHIL / ABSOLUTE EOSINOPHIL / ABSOLUTE LYMPHOCYTE / ABSOLUTE MONOCYTE / ABSOLUTE SEGMENTED NEUTROPHIL / BASOPHIL / EOSINOPHIL / ERYTHROCYTE COUNT / HEMATOCRIT / LEUKOCYTE COUNT / LYMPHOCYTE / MEAN CORPUSCULAR HEMOGLOBIN / MEAN CORPUSCULAR HEMOGLOBIN CONCENTRATION / MEAN CORPUSCULAR VOLUME / MONOCYTE / NEUTROPHIL / NUCLEATED RED BLOOD CELLS / PLATELET COUNT / HEMOGLOBIN: tissue Blood
[1] = 0 mg/kg, 72 h, dose level Control, time 3 day
[2] = 0 mg/kg, 72 h, tissue Plasma, dose level Control, time 3 day
[3] = 0 mg/kg, 120 h, dose level Control, time 5 day
[4] = 0 mg/kg, 120 h, tissue Plasma, dose level Control, time 5 day
[5] = 8 mg/kg, 72 h, dose level High, time 3 day
[6] = 8 mg/kg, 72 h, tissue Plasma, dose level High, time 3 day
[7] = 8 mg/kg, 120 h, dose level High, time 5 day
[8] = 8 mg/kg, 120 h, tissue Plasma, dose level High, time 5 day

OXALIPLATIN
ABSOLUTE BASOPHIL [1]: 0 CELLS/uL
ABSOLUTE EOSINOPHIL [1]: 0 CELLS/uL
ABSOLUTE LYMPHOCYTE [1]: 7637.67 CELLS/uL
ABSOLUTE MONOCYTE [1]: 67.83 CELLS/uL
ABSOLUTE SEGMENTED NEUTROPHIL [1]: 661.17 CELLS/uL
BASOPHIL [1]: 0%
EOSINOPHIL [1]: 0%
ERYTHROCYTE COUNT [1]: 5.38 x10E6/uL
HEMATOCRIT [1]: 33.67%
LEUKOCYTE COUNT [1]: 8.37 x10E3/uL
LYMPHOCYTE [1]: 91.17%
MEAN CORPUSCULAR HEMOGLOBIN [1]: 23.95 pg
MEAN CORPUSCULAR HEMOGLOBIN CONCENTRATION [1]: 38.23 G/DL
MEAN CORPUSCULAR VOLUME [1]: 62.6 fL
MONOCYTE [1]: 0.83%
NEUTROPHIL [1]: 8%
NUCLEATED RED BLOOD CELLS [1]: 0.17 /100WBC
PLATELET COUNT [1]: 865 x10E3/uL
ALANINE AMINOTRANSFERASE [2]: 51.67 u/L
ALKALINE PHOSPHATASE [2]: 351.17 u/L
ASPARTATE AMINOTRANSFERASE [2]: 82.33 u/L
BLOOD UREA NITROGEN [2]: 15.17 mg/dL
CARBON DIOXIDE [2]: 34.5 mmol/L
CHLORIDE [2]: 100 MEQ/L
CHOLESTEROL [2]: 80.33 mg/dL
CREATINE PHOSPHOKINASE [2]: 316.5 u/L
CREATININE [2]: 0.17 mg/dL
LACTATE DEHYDROGENASE [2]: 105.67 u/L
LIPASE [2]: 9.5 u/L
PHOSPHORUS [2]: 10.87 mg/dL
POTASSIUM [2]: 5.47 MEQ/L
TOTAL BILIRUBIN [2]: 0.2 mg/dL
TOTAL PROTEIN [2]: 5.83 G/DL
URIC ACID [2]: 0.83 mg/dL
ABSOLUTE BASOPHIL [3]: 0 CELLS/uL
ABSOLUTE EOSINOPHIL [3]: 0 CELLS/uL
ABSOLUTE LYMPHOCYTE [3]: 6333.5 CELLS/uL
ABSOLUTE MONOCYTE [3]: 38.83 CELLS/uL
ABSOLUTE SEGMENTED NEUTROPHIL [3]: 661 CELLS/uL
BASOPHIL [3]: 0%
EOSINOPHIL [3]: 0%
ERYTHROCYTE COUNT [3]: 5.44 x10E6/uL
HEMATOCRIT [3]: 34.17%
HEMOGLOBIN [3]: 13.22 G/DL
LEUKOCYTE COUNT [3]: 7.03 x10E3/uL
LYMPHOCYTE [3]: 90.17%
MEAN CORPUSCULAR HEMOGLOBIN [3]: 24.38 pg
MEAN CORPUSCULAR HEMOGLOBIN CONCENTRATION [3]: 38.7 G/DL
MEAN CORPUSCULAR VOLUME [3]: 62.95 fL
MONOCYTE [3]: 0.5%
NUCLEATED RED BLOOD CELLS [3]: 0 /100WBC
PLATELET COUNT [3]: 924.33 x10E3/uL
ALANINE AMINOTRANSFERASE [4]: 52.5 u/L
ALKALINE PHOSPHATASE [4]: 364.83 u/L
ASPARTATE AMINOTRANSFERASE [4]: 82.5 u/L
BLOOD UREA NITROGEN [4]: 17 mg/dL
CARBON DIOXIDE [4]: 32.33 mmol/L
CHLORIDE [4]: 99.6 MEQ/L
CHOLESTEROL [4]: 75.83 mg/dL
CREATINE PHOSPHOKINASE [4]: 419 u/L
CREATININE [4]: 0.21 mg/dL
GLUCOSE [4]: 155 mg/dL
LIPASE [4]: 11.33 u/L
PHOSPHORUS [4]: 10.32 mg/dL
POTASSIUM [4]: 5.37 MEQ/L
TOTAL BILIRUBIN [4]: 0.18 mg/dL
TOTAL PROTEIN [4]: 5.98 G/DL
URIC ACID [4]: 0.62 mg/dL
ABSOLUTE BASOPHIL [5]: 0 CELLS/uL
ABSOLUTE EOSINOPHIL [5]: 0 CELLS/uL
ABSOLUTE LYMPHOCYTE [5]: 4377.33 CELLS/uL
ABSOLUTE MONOCYTE [5]: 16.67 CELLS/uL
ABSOLUTE SEGMENTED NEUTROPHIL [5]: 339.33 CELLS/uL
BASOPHIL [5]: 0%
EOSINOPHIL [5]: 0%
ERYTHROCYTE COUNT [5]: 5.41 x10E6/uL
HEMATOCRIT [5]: 33.23%
HEMOGLOBIN [5]: 12.83 G/DL
LEUKOCYTE COUNT [5]: 4.73 x10E3/uL
LYMPHOCYTE [5]: 92.67%
MEAN CORPUSCULAR HEMOGLOBIN CONCENTRATION [5]: 38.63 G/DL
MONOCYTE [5]: 0.33%
NEUTROPHIL [5]: 7%
NUCLEATED RED BLOOD CELLS [5]: 0 /100WBC
PLATELET COUNT [5]: 1068.33 x10E3/uL
ALANINE AMINOTRANSFERASE [6]: 44.67 u/L
ALBUMIN [6]: 4.3 G/DL
ALKALINE PHOSPHATASE [6]: 356.33 u/L
ASPARTATE AMINOTRANSFERASE [6]: 77.33 u/L
BLOOD UREA NITROGEN [6]: 16.67 mg/dL
CARBON DIOXIDE [6]: 34.33 mmol/L
CHLORIDE [6]: 99 MEQ/L
CHOLESTEROL [6]: 76 mg/dL
CREATINE PHOSPHOKINASE [6]: 301 u/L
CREATININE [6]: 0.12 mg/dL
LACTATE DEHYDROGENASE [6]: 153.67 u/L
POTASSIUM [6]: 5.69 MEQ/L
TOTAL BILIRUBIN [6]: 0.2 mg/dL
TOTAL PROTEIN [6]: 6.2 G/DL
URIC ACID [6]: 0.67 mg/dL
ABSOLUTE BASOPHIL [7]: 0 CELLS/uL
ABSOLUTE EOSINOPHIL [7]: 0 CELLS/uL
ABSOLUTE LYMPHOCYTE [7]: 3427.33 CELLS/uL
ABSOLUTE MONOCYTE [7]: 20 CELLS/uL
ABSOLUTE SEGMENTED NEUTROPHIL [7]: 186 CELLS/uL
BASOPHIL [7]: 0%
EOSINOPHIL [7]: 0%
ERYTHROCYTE COUNT [7]: 5.56 x10E6/uL
HEMATOCRIT [7]: 33.2%
HEMOGLOBIN [7]: 12.67 G/DL
LEUKOCYTE COUNT [7]: 3.63 x10E3/uL
LYMPHOCYTE [7]: 93.33%
MEAN CORPUSCULAR HEMOGLOBIN [7]: 22.77 pg
MEAN CORPUSCULAR HEMOGLOBIN CONCENTRATION [7]: 38.17 G/DL
MONOCYTE [7]: 0.67%
NEUTROPHIL [7]: 6%
NUCLEATED RED BLOOD CELLS [7]: 0.33 /100WBC
PLATELET COUNT [7]: 976 x10E3/uL
ALANINE AMINOTRANSFERASE [8]: 50 u/L
ALKALINE PHOSPHATASE [8]: 285.67 u/L
ASPARTATE AMINOTRANSFERASE [8]: 73.67 u/L
BLOOD UREA NITROGEN [8]: 16.67 mg/dL
CARBON DIOXIDE [8]: 33.67 mmol/L
CHLORIDE [8]: 98 MEQ/L
CHOLESTEROL [8]: 68.33 mg/dL
CREATINE PHOSPHOKINASE [8]: 268.33 u/L
CREATININE [8]: 0.16 mg/dL
GLUCOSE [8]: 141 mg/dL
LACTATE DEHYDROGENASE [8]: 86 u/L
LIPASE [8]: 9 u/L
PHOSPHORUS [8]: 9 mg/dL
POTASSIUM [8]: 5.38 MEQ/L
TOTAL BILIRUBIN [8]: 0.13 mg/dL
TOTAL PROTEIN [8]: 6.33 G/DL
URIC ACID [8]: 0.6 mg/dL
